From PMC5365060, “Construction of an octosyl acid backbone catalyzed by a radical S-adenosylmethionine enzyme and a phosphatase in the biosynthesis of high-carbon sugar nucleoside antibiotics” (Chemical Science, 2016)

Biological target: T1, PolH (Streptomyces aureochromogenes, UniProt J7G018)
T1 construct: pET28a, N-terminal His6 tag, E. coli; anaerobically purified, reconstituted [4Fe-4S]; motif C225XXXC229XXC232
Test: HPLC time course of OAP and […]'-deoxyadenosine
Assay type: biochemical
Conditions: 3'-EUMP, sodium dithionite, anaerobic; SAM consumed as co-substrate

T1 sequence (J7G018 entry or part of it): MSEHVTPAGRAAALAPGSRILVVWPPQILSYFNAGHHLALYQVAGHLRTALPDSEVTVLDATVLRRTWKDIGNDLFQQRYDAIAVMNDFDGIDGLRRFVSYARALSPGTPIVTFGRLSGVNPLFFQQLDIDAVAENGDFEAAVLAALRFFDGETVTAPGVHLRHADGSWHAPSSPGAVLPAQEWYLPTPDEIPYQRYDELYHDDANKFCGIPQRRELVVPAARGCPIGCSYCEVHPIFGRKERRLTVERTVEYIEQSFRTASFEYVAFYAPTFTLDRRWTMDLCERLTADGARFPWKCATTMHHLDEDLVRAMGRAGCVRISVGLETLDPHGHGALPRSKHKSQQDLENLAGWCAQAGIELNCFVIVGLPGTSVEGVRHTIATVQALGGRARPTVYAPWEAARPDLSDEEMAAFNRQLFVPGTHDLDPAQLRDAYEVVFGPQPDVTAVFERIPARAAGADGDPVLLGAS

Compound: C[S+](CC[C@H](N)C(=O)O)C[C@H]1O[C@@H](n2cnc3c(N)ncnc32)[C@H](O)[C@@H]1O (stereo partly shown) [SAM]
- HPLC time course of OAP and 5'-deoxyadenosine: indicating that SAM was being used as a co-substrate
